Here are results for 31 compounds from patent US10793563B2, “GCN2 inhibitors and uses thereof” (Merck Patent GmbH, priority 2018, dated 2020).

Structures are written as SMILES. Where only a bound is given, the exact number is not on record here.

The target in the first assay is GCN2 kinase (Homo sapiens (Human), UniProt Q9P2K8). In words: GCN2 Enzyme Inhibition Assay (Transcreener ADP2 fluorescence polarization). The format is biochemical. The conditions noted are these: 280 μM ATP, 200 μM (RS)7 peptide, 4 nM GCN2, 25° C. In outline: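 Transcreener ADP2 fluorescence polarization detection of ADP from 4 nM GCN2 with (RS)7 substrate in 25 mM Tris-HCl pH 7.5, 50 mM NaCl, 10 mM MgCl2, 1 mM DTT. Compound pre-incubated with enzyme 10 min at 25 °C; reaction started by ATP, run 1 h at 25 °C. IC50 and Ki(app) by tight-binding fit.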
GCN2 kinase, sequence (Q9P2K8 whole entry): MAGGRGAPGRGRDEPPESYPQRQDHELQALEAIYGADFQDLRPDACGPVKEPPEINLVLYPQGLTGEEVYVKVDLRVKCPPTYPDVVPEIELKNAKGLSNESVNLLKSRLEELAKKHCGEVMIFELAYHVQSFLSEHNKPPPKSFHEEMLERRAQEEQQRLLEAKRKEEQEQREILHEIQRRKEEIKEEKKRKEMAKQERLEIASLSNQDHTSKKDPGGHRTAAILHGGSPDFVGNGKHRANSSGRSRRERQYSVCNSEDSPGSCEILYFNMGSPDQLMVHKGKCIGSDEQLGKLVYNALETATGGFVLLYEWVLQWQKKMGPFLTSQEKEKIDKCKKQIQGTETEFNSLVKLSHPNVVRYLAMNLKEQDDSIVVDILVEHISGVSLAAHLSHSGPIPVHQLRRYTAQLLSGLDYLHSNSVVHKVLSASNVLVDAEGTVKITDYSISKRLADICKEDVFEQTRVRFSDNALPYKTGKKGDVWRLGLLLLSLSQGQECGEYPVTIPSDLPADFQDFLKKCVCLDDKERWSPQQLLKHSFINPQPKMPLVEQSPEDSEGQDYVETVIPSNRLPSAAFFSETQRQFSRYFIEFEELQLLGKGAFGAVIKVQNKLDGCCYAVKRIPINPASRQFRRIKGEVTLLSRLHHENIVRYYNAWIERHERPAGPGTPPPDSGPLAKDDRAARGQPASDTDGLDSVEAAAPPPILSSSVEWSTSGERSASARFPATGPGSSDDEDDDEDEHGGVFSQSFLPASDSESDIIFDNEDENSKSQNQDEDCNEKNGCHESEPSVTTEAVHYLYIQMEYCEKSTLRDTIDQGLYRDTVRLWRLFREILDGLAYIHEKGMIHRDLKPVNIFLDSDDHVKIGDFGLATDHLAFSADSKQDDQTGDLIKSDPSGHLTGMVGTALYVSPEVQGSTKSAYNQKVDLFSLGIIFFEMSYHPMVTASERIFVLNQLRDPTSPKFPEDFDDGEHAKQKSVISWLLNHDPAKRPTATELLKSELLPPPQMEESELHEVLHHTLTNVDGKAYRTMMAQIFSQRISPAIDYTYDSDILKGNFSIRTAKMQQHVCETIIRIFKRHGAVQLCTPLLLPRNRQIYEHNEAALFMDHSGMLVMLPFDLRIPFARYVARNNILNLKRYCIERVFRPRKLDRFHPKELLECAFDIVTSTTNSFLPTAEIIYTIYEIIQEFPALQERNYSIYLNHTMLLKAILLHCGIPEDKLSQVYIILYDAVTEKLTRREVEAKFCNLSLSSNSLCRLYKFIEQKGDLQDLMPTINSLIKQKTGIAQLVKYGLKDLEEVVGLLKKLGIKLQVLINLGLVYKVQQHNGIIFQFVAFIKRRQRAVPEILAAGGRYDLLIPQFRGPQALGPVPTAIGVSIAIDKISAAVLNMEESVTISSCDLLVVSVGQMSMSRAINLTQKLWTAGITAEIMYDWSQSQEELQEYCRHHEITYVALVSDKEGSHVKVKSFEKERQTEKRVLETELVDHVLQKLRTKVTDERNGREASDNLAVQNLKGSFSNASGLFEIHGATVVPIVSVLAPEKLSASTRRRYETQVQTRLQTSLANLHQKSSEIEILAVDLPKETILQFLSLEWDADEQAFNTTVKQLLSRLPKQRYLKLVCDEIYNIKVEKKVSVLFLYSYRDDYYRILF
In turn, `N[C@H]1C[C@H](O)CN(c2ccnc(-c3cnc4ccc(C(F)(F)F)cn34)n2)C1` [I-239, (3 S,5S)-5-amino-1-(2-(6-(trifluoromethyl)imidazo[1,2-a]pyridin-3-yl)pyrimidin-4-yl)piperidin-3-ol] returned a concentration for half-maximal inhibition (IC50) of 100 to 1000 nM.

Turning to `CC1CN(c2ccnc(-c3cnc4ccc(C(F)(F)F)cn34)n2)CC(C#N)O1` (centres unmarked) [I-331, 6-methyl-4-(2-(6-(trifluoromethyl)imidazo[1,2-a]pyridin-3-yl)pyrimidin-4-yl)morpholine-2-carbonitrile], the IC50 is 100 to 1000 nM.

As to `COc1cc(C(=O)N2CCN(c3ccnc(-c4cnc5ccc(C(F)(F)F)cn45)n3)CC2c2cn[nH]c2)ccn1` (centres unmarked) [I-452, (2-(1H-pyrazol-4-yl)-4-(2-(6-(trifluoromethyl)imidazo[1,2-a]pyridin-3-yl)pyrimidin-4-yl)piperazin-1-yl)(2-methoxypyridin-4-yl)methanone], the IC50 is 100 to 1000 nM.

Compound `O=S1(=O)CCN2CCN(c3ccnc(-c4cnc5ccc(C(F)(F)F)cn45)n3)CC2C1` (centres unmarked) [I-338, 8-(2-(6-(trifluoromethyl)imidazo[1,2-a]pyridin-3-yl)pyrimidin-4-yl)octahydropyrazino[2,1-c][1,4]thiazine 2,2-dioxide] returned an IC50 of 100 to 1000 nM.

As to `CC(=O)NC1CCCN(c2ccnc(-c3cnc4ccc(C(F)(F)F)cn34)n2)C1` (centres unmarked) [I-187, N-(1-(2-(6-(trifluoromethyl)imidazo[1,2-a]pyridin-3-yl)pyrimidin-4-yl)piperidin-3-yl)acetamide], the IC50 was 10 to 100 nM.

On to `CC1C(C(N)=O)NCCN1c1ccnc(-c2cnc3ccc(C(F)(F)F)cn23)n1` (centres unmarked) [I-380, 3-methyl-4-{2-[6-(trifluoromethyl)imidazo[1,2-a]pyridin-3-yl]pyrimidin-4-yl}piperazine-2-carboxamide], for which the concentration for half-maximal inhibition (IC50) is < 10 nM.

For the compound `C[C@@H]1C[C@@H](N)CN(c2ccnc(-c3cnc4ccc(Cl)cn34)n2)C1` [I-256, (3R,5R)-1-(2-(6-chloroimidazo[1,2-a]pyridin-3-yl)pyrimidin-4-yl)-5-methylpiperidin-3-amine], the IC50 is 100 to 1000 nM.

For the compound `CC(O)C(=O)N[C@H]1C[C@H](O)CN(c2ccnc(-c3cnc4ccc(C(F)(F)F)cn34)n2)C1` (stereo partly drawn) [I-254, 2-hydroxy-N-((3S,5S)-5-hydroxy-1-(2-(6-(trifluoromethyl)imidazo[1,2-a]pyridin-3-yl)pyrimidin-4-yl)piperidin-3-yl)propanamide], the concentration for half-maximal inhibition (IC50) fell in the range of 100 to 1000 nM.

Turning to `N#CC1(C(=O)N2CCN(c3ccnc(-c4cnc5ccc(C(F)(F)F)cn45)n3)CC2c2cn[nH]c2)CC1` (centres unmarked) [I-432, 1-(2-(1H-pyrazol-4-yl)-4-(2-(6-(trifluoromethyl)imidazo[1,2-a]pyridin-3-yl)pyrimidin-4-yl)piperazine-1-carbonyl)cyclopropane-1-carbonitrile], the IC50 lay within 10 to 100 nM.

`CC(C)(C(N)=O)C1CCCN(c2ccnc(-c3cnc4ccc(Cl)cn34)n2)C1` (centres unmarked) [I-309, 2-(1-(2-(6-chloroimidazo[1,2-a]pyridin-3-yl)pyrimidin-4-yl)piperidin-3-yl)-2-methylpropanamide] gave an IC50 of 100 to 1000 nM.

Regarding `Clc1ccc2ncc(-c3nccc(N4CCCC5(CNC5)C4)n3)n2c1` [I-299, 6-(2-(6-chloroimidazo[1,2-a]pyridin-3-yl)pyrimidin-4-yl)-2,6-diazaspiro[3.5]nonane], the IC50 fell in the range of 100 to 1000 nM.

`C[C@H]1[C@@H](c2cn[nH]c2)NCCN1c1ccnc(-c2cnc3ccc(C(F)(F)F)cn23)n1` [I-534, 3-(4-((2 S,3R)-2-methyl-3-(1H-pyrazol-4-yl)piperazin-1-yl)pyrimidin-2-yl)-6-(trifluoromethyl)imidazo[1,2-a]pyridine] had an IC50 of 100 to 1000 nM.

Take `Cc1noc([C@@H]2CN(c3ccnc(-c4cnc5cc(F)c(C6CC6)cn45)n3)C[C@H](C)O2)n1` [I-341, (2S,6S)-4-(2-(6-cyclopropyl-7-fluoroimidazo[1,2-a]pyridin-3-yl)pyrimidin-4-yl)-2-methyl-6-(3-methyl-1,2,4-oxadiazol-5-yl)morpholine]: the IC50 is 100 to 1000 nM.

Take `O=C1NC[C@]12CCCN(c1ccnc(-c3cnc4ccc(C(F)(F)F)cn34)n1)C2` [I-296, (S)-6-(2-(6-(trifluoromethyl)imidazo[1,2-a]pyridin-3-yl)pyrimidin-4-yl)-2,6-diazaspiro[3.5]nonan-1-one]: the IC50 fell in the range of 100 to 1000 nM.

`NC(=O)C1CC12CCCN(c1ccnc(-c3cnc4ccc(Cl)cn34)n1)C2` (centres unmarked) [I-132, 5-(2-(6-chloroimidazo[1,2-a]pyridin-3-yl)pyrimidin-4-yl)-5-azaspiro[2.5]octane-1-carboxamide] displayed an IC50 of 10 to 100 nM.

For `O=C1CCC[C@@H](C(=O)N2CCN(c3ccnc(-c4cnc5ccc(C(F)(F)F)cn45)n3)C[C@@H]2c2cn[nH]c2)N1` [I-474, (S)-6-((S)-2-(1H-pyrazol-4-yl)-4-(2-(6-(trifluoromethyl)imidazo[1,2-a]pyridin-3-yl)pyrimidin-4-yl)piperazine-1-carbonyl)piperidin-2-one], the half-maximal inhibitory concentration (IC50) fell in the range of 100 to 1000 nM.

Compound `Cc1nnc(C)n1[C@@H]1C[C@@H](C)CN(c2nccc(-c3cnc4ccc(C(F)(F)F)cn34)n2)C1` [I-467, 3-(2-((3R,5R)-3-(3,5-dimethyl-4H-1,2,4-triazol-4-yl)-5-methylpiperidin-1-yl)pyrimidin-4-yl)-6-(trifluoromethyl)imidazo[1,2-a]pyridine] displayed an IC50 of 10 to 100 nM.

The compound `Cc1nonc1C(=O)N1CCN(c2ccnc(-c3cnc4ccc(C(F)(F)F)cn34)n2)CC1c1cn[nH]c1` (centres unmarked) [I-518, (2-(1H-pyrazol-4-yl)-4-(2-(6-(trifluoromethyl)imidazo[1,2-a]pyridin-3-yl)pyrimidin-4-yl)piperazin-1-yl)(4-methyl-1,2,5-oxadiazol-3-yl)methanone] came in with an IC50 of 10 to 100 nM.

`Cc1noc([C@H]2CN(c3ccnc(-c4cnc5ccc(C(F)F)cn45)n3)C[C@@H](C)O2)n1` [I-375, (2R,6R)-4-(2-(6-(difluoromethyl)imidazo[1,2-a]pyridin-3-yl)pyrimidin-4-yl)-2-methyl-6-(3-methyl-1,2,4-oxadiazol-5-yl)morpholine] had a half-maximal inhibitory concentration (IC50) of 10 to 100 nM.

Take `COCCN1CCN(c2ccnc(-c3cnc4ccc(C(F)(F)F)cn34)n2)CC1C(N)=O` (centres unmarked) [I-258, 1-(2-methoxyethyl)-4-(2-(6-(trifluoromethyl)imidazo[1,2-a]pyridin-3-yl)pyrimidin-4-yl)piperazine-2-carboxamide]: the IC50 is 10 to 100 nM.

Consider `CC1(C(N)=O)CCCN(c2ccnc(-c3cnc4ccc(C(F)(F)F)cn34)n2)C1` (centres unmarked) [I-192, 3-methyl-1-(2-(6-(trifluoromethyl)imidazo[1,2-a]pyridin-3-yl)pyrimidin-4-yl)piperidine-3-carboxamide], for which the IC50 was in the range of 10 to 100 nM.

`C[C@H]1C[C@@H](N=S(C)(C)=O)CN(c2ccnc(-c3cnc4ccc(S(N)(=O)=O)cn34)n2)C1` [I-328, 3-(4-((3R,5S)-3-((dimethyl(oxo)-λ6-sulfaneylidene)amino)-5-methylpiperidin-1-yl)pyrimidin-2-yl)imidazo[1,2-a]pyridine-6-sulfonamide] came in with an IC50 of 100 to 1000 nM.

For `NC(=O)C1CC(F)CN(c2ccnc(-c3cnc4ccc(C(F)(F)F)cn34)n2)C1` (centres unmarked) [I-229, 5-fluoro-1-(2-(6-(trifluoromethyl)imidazo[1,2-a]pyridin-3-yl)pyrimidin-4-yl)piperidine-3-carboxamide], the IC50 was < 10 nM.

For `C[C@@H]1CN(c2ccnc(-c3cnc4ccc(C(F)(F)F)cn34)n2)C[C@H](C)N1C(=O)c1cc2n(n1)CCOC2` [I-513, (6,7-dihydro-4H-pyrazolo[5,1-c][1,4]oxazin-2-yl)(cis-2,6-dimethyl-4-(2-(6-(trifluoromethyl)imidazo[1,2-a]pyridin-3-yl)pyrimidin-4-yl)piperazin-1-yl)methanone], the 50% inhibitory concentration (IC50) fell in the range of 100 to 1000 nM.

Take `FC(F)(F)c1ccc2ncc(-c3nccc(N4CCN(CC5COC5)C(c5cn[nH]c5)C4)n3)n2c1` (centres unmarked) [I-374, 3-(4-(4-(oxetan-3-ylmethyl)-3-(1H-pyrazol-4-yl)piperazin-1-yl)pyrimidin-2-yl)-6-(trifluoromethyl)imidazo[1,2-a]pyridine]: the IC50 was < 10 nM.

As to `C[C@@H]1CN(c2ccnc(-c3cnc4ccc(C(F)(F)F)cn34)n2)C[C@H](C)N1C(=O)C1CC(F)(F)C1` [I-437, (3,3-difluorocyclobutyl)(cis-2,6-dimethyl-4-(2-(6-(trifluoromethyl)imidazo[1,2-a]pyridin-3-yl)pyrimidin-4-yl)piperazin-1-yl)methanone], the 50% inhibitory concentration (IC50) was 100 to 1000 nM.

In turn, `Cc1[nH]ncc1[C@H]1CN(c2ccnc(-c3cnc4cc(F)c(Cl)cn34)n2)C[C@H](C)O1` [I-539, (2S,6S)-4-(2-(6-chloro-7-fluoroimidazo[1,2-a]pyridin-3-yl)pyrimidin-4-yl)-2-methyl-6-(5-methyl-1H-pyrazol-4-yl)morpholine] yielded an IC50 of 10 to 100 nM.

On to `FC1(F)CCC(N2CCN(c3ccnc(-c4cnc5ccc(C(F)(F)F)cn45)n3)CC2c2cn[nH]c2)CC1` (centres unmarked) [I-460, 3-(4-(4-(4,4-difluorocyclohexyl)-3-(1H-pyrazol-4-yl)piperazin-1-yl)pyrimidin-2-yl)-6-(trifluoromethyl)imidazo[1,2-a]pyridine], for which the half-maximal inhibitory concentration (IC50) is 10 to 100 nM.

As for `NC1CN(c2ccnc(-c3cnc4ccc(Cl)cn34)n2)CC[C@H]1O` (stereo in doubt) [I-255, (3R,4R)-3-amino-1-(2-(6-chloroimidazo[1,2-a]pyridin-3-yl)pyrimidin-4-yl)piperidin-4-ol], the half-maximal inhibitory concentration (IC50) was in the range of 100 to 1000 nM.

Staying with this assay, now noted: Ki(app); 280 μM ATP, 200 μM (RS)7 peptide, 4 nM GCN2, 25° C.
Turning to `CC1C(C(N)=O)NCCN1c1ccnc(-c2cnc3ccc(C(F)(F)F)cn23)n1` (centres unmarked) [I-380, 3-methyl-4-{2-[6-(trifluoromethyl)imidazo[1,2-a]pyridin-3-yl]pyrimidin-4-yl}piperazine-2-carboxamide], the Ki was < 10 nM.

The compound `Cc1nnc([C@@H]2CN(c3ccnc(-c4cnc5ccc(C#N)cn45)n3)C[C@H](C)O2)o1` (relative stereo) [I-94, 3-{4-[cis-2-methyl-6-(5-methyl-1,3,4-oxadiazol-2-yl)morpholin-4-yl]pyrimidin-2-yl}imidazo[1,2-a]pyridine-6-carbonitrile] gave a Ki of 100 to 1000 nM.

`Cc1noc([C@@H]2CN(c3ccnc(-c4cnc5ccc(C#N)cn45)n3)C[C@H](C)O2)n1` [I-91, 3-{4-[(2S,6S)-2-methyl-6-(3-methyl-1,2,4-oxadiazol-5-yl)morpholin-4-yl]pyrimidin-2-yl}imidazo[1,2-a]pyridine-6-carbonitrile] registered a Ki of 10 to 100 nM.
